From PMC5403950, “Mechanism Underlying the Reversal of Drug Resistance in P-Glycoprotein-Expressing Leukemia Cells by Pinoresinol and the Study of a Derivative” (Frontiers in Pharmacology, 2017)
Where “and” joins values, the source holds several entries; their conditions need not be identical. Equal entries are not always repeated. Entries after “also recorded” stand apart in the source; their conditions may differ. Structures can show the parent of a compound that is named as a salt. Where two headings read alike, the source gives them in different places.

Experiments:
K562 cells [1] = assay: Multidrug resistance reversal assay (MTT) with DOX, sensitive parental line; type: cell-based, human; conditions: for Effect on DOX sensitivity in K562: compound at highest non-toxic concentration (Table 1)
Method: (§1) Briefly, 5 × 10^4 Lucena 1 cells per well were seeded in 96-well plates containing RPMI-1640 medium in the presence of DOX alone or in combination with the tested compounds dissolved in ethanol or acetonitrile as appropriate. DOX was added to reach final concentrations of 0.05–431 μM. The compounds were assayed at the highest non-toxic concentration observed in both cell lines (cytotoxicity ≤ 20%, Cytotoxicity (%) = [1-(Optical density treatment-Optical density DMSO)/(Optical density control-Optical density DMSO)] x 100, determined by MTT proliferation assay (Joray et al., [2015]); maximum concentration tested 40 μg mL^−1). Following the primary screening, compounds 14 and 16 (dissolved in ethanol) were tested at serial dilutions. […] Subsequently, the supernatants were removed and replaced with 100 μL DMSO to solubilize the resulting purple formazan crystals produced from metabolically viable cells. Absorbance was measured with an iMark micro-plate reader (Bio-Rad, USA) at 595 nm.
(§2) The same reversal assay was performed in K562 cells, in order to discard a decrease in the IC50 of DOX due to effects other than P-gp inhibition. The reversal fold (RF) values for the tested compounds, which indicate their capacity to reduce resistance to DOX, were calculated by dividing the IC50 of DOX alone by the IC50 of DOX in the presence of the tested compounds (Xu et al., [2014]).

Lucena 1 cells [2] = assay: Multidrug resistance reversal assay (MTT) with DOX; type: cell-based, human; conditions: for Effect on DOX toxicity in Lucena 1: compound at highest non-toxic concentration (Table 1)
Method: as §1, §2

Lucena 1 cells [3] = assay: Reversal assay (MTT) with VLB; type: cell-based, human
Method: Subsequently, the supernatants were removed and replaced with 100 μL DMSO to solubilize the resulting purple formazan crystals produced from metabolically viable cells.
The same reversal assay was performed in K562 cells, in order to discard a decrease in the IC50 of DOX due to effects other than P-gp inhibition.

K562 cells [4] = assay: Reversal assay (MTT) with VLB, sensitive parental line; type: cell-based, human
K562 cells [5] = assay: Doxorubicin intracellular accumulation assay (flow cytometry), K562; type: cell-based, human; conditions: up to the maximum concentration evaluated
From the text: […]. […] Viability controls were included in all the experiments.

P-gp [6] = test system: P-gp; set-up: method as in Tamaki et al., 2008; conditions: applied at 50 and 100 μM; ref Tamaki et al., 2008; cited from earlier work
[7] = test system: KB-C2 cells overexpressing P-gp; set-up: method as in Nabekura et al., 2008; conditions: ref Nabekura et al., 2008; cited from earlier work
K562 cells [8] = assay: Doxorubicin efflux assay (flow cytometry), K562; type: cell-based, human; conditions: 14 at 112 μM, verapamil 30 μM
Method: Cells were then washed with ice-cold PBS and the intracellular DOX-associated MFI of 50,000 individual cells was determined by flow cytometry as previously described.

K562 cells [9] = assay: Rhodamine 123 efflux assay (flow cytometry), K562; type: cell-based, human; conditions: 14 at 112 μM
Method: Rho 123, a P-gp fluorescent substrate, is frequently employed as an indicator of P-gp activity and it was therefore used in an additional efflux study. […] Subsequently, cells were incubated with 500 ng mL^−1 of Rho 123 for 30 min. […] After washing twice with cold PBS, the amount of Rho 123 remaining in 10,000 individual cells after the efflux period was quantified by FACScan flow cytometry. Excitation was performed with a laser operating at 488 nm and the emitted fluorescence was collected through a 530/30 nm pass filter.

P-gp [10] = assay: Surface expression of P-gp (FITC anti-human P-gp, flow cytometry), Lucena 1; type: cell-based; conditions: 14 at 112 μM, 48 h
Method: (§3) To determine the effect of 14 on P-gp surface expression, Lucena 1 or K562 cells at a density of 5 × 10^4 cells mL^−1 were incubated in the presence of 14, dissolved in ethanol at 112 μM (maximum non-cytotoxic concentration, in order to ensure the presence of the effect) or 1% ethanol (control) for 24 and 48 h. Then, cells were washed with cold PBS and labeled for 30 min at 4°C in the dark with FITC-conjugated mouse anti-human P-gp antibody, which binds to an external epitope of P-gp, according to the manufacturer's instructions. Finally, cells were washed and suspended with ice-cold PBS and fluorescence intensity was determined in 10,000 individual cells by FACScan flow cytometry. FITC fluorescence was measured at an excitation wavelength of 488 nm and emitted light was collected with a 530/30 nm bandpass filter.

P-gp [11] = assay: Surface expression of P-gp (FITC anti-human P-gp, flow cytometry), K562; type: cell-based; conditions: 14 at 112 μM, 24 and 48 h
Method: as §3

P-gp [12] = target: T1, P-gp (Homo sapiens, UniProt P08183); conditions: Lucena 1; for % of inhibition related to verapamil (DOX accumulation): 112 μM
P-gp [13] = target: T1, P-gp; assay: P-gp ATPase activity ([…] ATPase assay kit, Sf9 membranes); type: biochemical; set-up: host or cells: Spodoptera frugiperda Sf9 cells (membrane preparation); conditions: for Maximum stimulation of P-gp-ATPase activity: activation assay, at 66.7 μM, relative to maximum activation by verapamil
Method: The ATPase reaction was subsequently stopped and the inorganic phosphate (Pi) produced was measured colorimetrically at 630 nm.
All experiments were performed in the absence or presence of 1.2 mM of sodium orthovanadate, an ABC transporter-related ATPase inhibitor, in order to measure the vanadate-sensitive portion of the total ATPase activity. […] Membranes from Sf9 cells expressing defective P-gp were used as controls.

P-gp [14] = target: T1, P-gp; assay: Doxorubicin efflux assay (flow cytometry); type: cell-based; set-up: Lucena 1 was chosen as a well-characterized resistant cell line in which P-gp overexpression is the exclusive mechanism of acquired resistance; endogenous in cells; host or cells: Lucena 1 (drug-selected, P-gp overexpressing) and parental K562 human CML cells; conditions: Lucena 1
Method: […]. […] After washing, cells were incubated for 30 min with 14. […] Cells were then washed with ice-cold PBS and the intracellular DOX-associated MFI of 50,000 individual cells was determined by flow cytometry as previously described.

P-gp [15] = target: T1, P-gp; assay: Rhodamine 123 efflux assay (flow cytometry); type: cell-based; set-up: Lucena 1 was chosen as a well-characterized resistant cell line in which P-gp overexpression is the exclusive mechanism of acquired resistance; endogenous in cells; host or cells: Lucena 1 (drug-selected, P-gp overexpressing) and parental K562 human CML cells; conditions: Lucena 1; 14 at 112 μM; 30 min efflux
[16] = 14 at 112 μM, verapamil as reference

T1 sequence (P08183 whole entry): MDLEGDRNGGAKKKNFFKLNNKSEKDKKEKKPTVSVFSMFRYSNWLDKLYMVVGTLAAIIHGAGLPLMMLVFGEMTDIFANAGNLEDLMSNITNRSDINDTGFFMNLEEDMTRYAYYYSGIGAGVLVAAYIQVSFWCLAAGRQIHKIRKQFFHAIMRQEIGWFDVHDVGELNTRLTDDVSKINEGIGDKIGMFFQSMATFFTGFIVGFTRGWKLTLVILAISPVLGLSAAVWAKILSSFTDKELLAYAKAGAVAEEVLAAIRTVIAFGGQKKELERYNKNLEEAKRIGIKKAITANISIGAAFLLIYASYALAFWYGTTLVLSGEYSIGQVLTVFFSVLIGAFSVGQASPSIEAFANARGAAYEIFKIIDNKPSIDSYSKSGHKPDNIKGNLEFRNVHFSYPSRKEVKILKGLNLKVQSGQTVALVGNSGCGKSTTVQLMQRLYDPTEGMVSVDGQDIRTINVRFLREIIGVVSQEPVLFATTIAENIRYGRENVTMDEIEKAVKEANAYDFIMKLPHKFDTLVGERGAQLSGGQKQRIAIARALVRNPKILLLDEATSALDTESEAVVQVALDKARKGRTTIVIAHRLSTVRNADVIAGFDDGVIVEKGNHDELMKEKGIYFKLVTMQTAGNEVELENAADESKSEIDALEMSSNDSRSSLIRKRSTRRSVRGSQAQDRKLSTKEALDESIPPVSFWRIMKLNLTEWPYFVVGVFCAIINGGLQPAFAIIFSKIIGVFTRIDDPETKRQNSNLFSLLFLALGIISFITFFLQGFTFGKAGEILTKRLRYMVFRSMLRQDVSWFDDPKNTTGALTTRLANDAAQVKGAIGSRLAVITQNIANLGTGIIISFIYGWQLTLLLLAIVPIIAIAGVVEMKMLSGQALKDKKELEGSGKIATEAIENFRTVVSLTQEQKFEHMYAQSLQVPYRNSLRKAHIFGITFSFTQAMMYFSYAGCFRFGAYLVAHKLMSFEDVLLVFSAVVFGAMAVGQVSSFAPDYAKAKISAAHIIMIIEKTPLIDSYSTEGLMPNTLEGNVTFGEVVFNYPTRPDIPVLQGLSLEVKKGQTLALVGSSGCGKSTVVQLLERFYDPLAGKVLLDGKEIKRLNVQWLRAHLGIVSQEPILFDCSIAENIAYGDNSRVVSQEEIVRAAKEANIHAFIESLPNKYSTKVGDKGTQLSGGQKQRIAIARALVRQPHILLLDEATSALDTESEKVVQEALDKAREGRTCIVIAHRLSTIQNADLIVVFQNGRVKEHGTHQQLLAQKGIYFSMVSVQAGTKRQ
T1 sequence (P08183 whole entry): as above

## O=C(/C=C/c1ccccc1)c1ccc(O)cc1O [Compound 6, 2′,4′-dihydroxychalcone]
K562 cells [1]
  Effect on DOX sensitivity in K562: caused a decrease in DOX IC50

## O=C1C[C@@H](c2ccc(O)cc2)Oc2cc(O)cc(O)c21 [Compound 8, naringenin]
Lucena 1 cells [2]
  Effect on DOX toxicity in Lucena 1: did not cause any effect in DOX toxicity

## CC1(C)C=Cc2c(cc3c(c2O)C(=O)CC(c2ccc(O)cc2O)O3)O1 (stereo not drawn) [Compound 9, dalenin]
K562 cells [1]
  Effect on DOX sensitivity in K562: caused a decrease in DOX IC50

## O=c1cc(-c2ccc(O)cc2)oc2cc(O)cc(O)c12 [Compound 10, apigenin]
Lucena 1 cells [2]
  Effect on DOX toxicity in Lucena 1: did not cause any effect in DOX toxicity

## O=c1c(O)c(-c2ccc(O)c(O)c2)oc2cc(O)cc(O)c12 [Compound 11, quercetin]
Lucena 1 cells [2]
  Effect on DOX toxicity in Lucena 1: decreased DOX sensitivity

## COc1cccc2c1C(=O)c1c(O)c3c(c(O)c1C2=O)C[C@@](O)(C(=O)CO)C[C@@H]3O[C@H]1C[C@H](N)[C@H](O)[C@H](C)O1 [DOX, Doxorubicin hydrochloride, reference compound]
Lucena 1 cells [2]; Homo sapiens, Lucena 1, MTT 48 h, 95% confidence limits in brackets, read-out: IC50 of DOX alone
  IC50: 40.8 µM
Lucena 1 cells [2]; ratio of DOX IC50 values
  Resistance of Lucena 1 to DOX relative to K562: 35 fold
K562 cells [1]; Homo sapiens, K562, MTT 48 h, 95% confidence limits in brackets, read-out: IC50 of DOX alone
  IC50: 1.16 µM

## CC[C@]1(O)C[C@@H]2CN(CCc3c([nH]c4ccccc34)[C@@](C(=O)OC)(c3cc4c(cc3OC)N(C)[C@H]3[C@@](O)(C(=O)OC)[C@H](OC(C)=O)[C@]5(CC)C=CCN6CC[C@]43[C@@H]65)C2)C1 [VLB, vinblastine sulfate, reference compound]
Lucena 1 cells [3]; Homo sapiens, VLB alone
  IC50: 2.49 µM
K562 cells [4]; Homo sapiens, VLB alone
  IC50: 0.24 µM

## COc1ccc(CCN(C)CCCC(C#N)(c2ccc(OC)c(OC)c2)C(C)C)cc1OC (stereo not drawn) [Verapamil, Verapamil hydrochloride, reference compound]
K562 cells [5]
  DOX accumulation in K562: No such increase in MFI

## (+)-pinoresinol [14 (+)-pinoresinol]
P-gp [6]
  Intracellular accumulation of calcein-AM: increased the intracellular accumulation of calcein-AM

## (-)-sesamin
[7]
  Concentration from which accumulation of daunorubicin increased: 50 µM

## (±)-pinoresinol [Compound 14]
Lucena 1 cells [2]; Lucena 1, DOX
  Minimum effective concentration (MEC) in the reversal assay (potentiation of DOX toxicity from): 7 µM
Lucena 1 cells [2]; compound at 28 μM (serial dilution), DOX
  RF Lucena 1: 3.4
K562 cells [1]
  Effect on DOX sensitivity in K562: did not increase DOX sensitivity
Lucena 1 cells [3]; [16]
  Reversal fold (RF) to VLB: 60 and 60.20
K562 cells [4]; [16]
  Reversal fold (RF) to VLB: 9 and 9.63
K562 cells [5]
  DOX accumulation in K562: No such increase in MFI
K562 cells [8]
  Effect on DOX efflux in K562: Neither 14 nor verapamil showed any significant effect
K562 cells [9]
  Rho 123-associated MFI in K562: did not induce any increase
P-gp [10]
  P-gp expression at the membrane surface vs control: less P-gp at the Lucena 1 cell membrane; also recorded: lower
P-gp [11]
  P-gp presence in the outer membrane: No suppression of P-gp presence
P-gp [12]; 0 h pre-incubation
  % of inhibition related to verapamil (DOX accumulation): 60%
P-gp [12]; 0.5 h pre-incubation
  % of inhibition related to verapamil (DOX accumulation): 73%
P-gp [12]; 1 h pre-incubation, verapamil 30 μM = maximum inhibition
  % of inhibition related to verapamil (DOX accumulation): 79%
P-gp [12]; 48 h pre-incubation
  % of inhibition related to verapamil (DOX accumulation): 55%
P-gp [12]; 14 at 56 μM (MEC)
  % inhibition with respect to verapamil (DOX accumulation): 80%
P-gp [12]; 14 at 112 μM, at 20 min, compared with MFI in K562
  Time course of DOX accumulation: fully restored the presence of DOX within Lucena 1 cells
P-gp [12]; 1 h pre-incubation, 5 μM DOX 1 h
  Minimum effective concentration (MEC) in the DOX accumulation assay: 56 µM
P-gp [12]; 1 h with 14, then 1 h DOX
  Type of P-gp inhibition (Lineweaver-Burk double reciprocal plot of DOX retention): competitive inhibitor
P-gp [12]; 48 h pre-incubation, 14 at 112 μM, verapamil 30 μM, 5 μM DOX 1 h
  Increase in DOX-associated MFI vs ethanol control: 1.4 fold
P-gp [12]; no pre-incubation (0 h), 14 at 112 μM, verapamil 30 μM, 5 μM DOX 1 h
  Increase in DOX accumulation (MFI) vs ethanol control: 1.3 fold
P-gp [13]
  Maximum stimulation of P-gp-ATPase activity: 29.49 ± 4.55%
P-gp [13]; listed as pinoresinol
  Maximum stimulation of P-gp-ATPase activity: 29%
P-gp [13]; membranes from Sf9 cells expressing defective P-gp, up to 600 μM
  Effect on ATPase activity of control membranes: no effect
P-gp [14]; 14 at 112 μM, 30 min in DOX-free medium
  Increase in DOX-associated MFI (retention) vs control in efflux assay: 1.8 fold
P-gp [14]; 30 min efflux
  Minimum effective concentration (MEC) in the DOX efflux assay: 56 µM
P-gp [15]
  Enhancement of intracellular Rho 123 intensity in efflux assay: 1.5 fold
